{
  "source": "patent US9456997B2",
  "about": "“Selective inhibition of β1-adrenergic receptors for the treatment of pediatric heart failure” (THE REGENTS OF THE UNIVERSITY OF COLORADO, A BODY CORPORATE, priority 2010, dated 2016)",
  "key": {"[1]": {"tested_on": "isoproterenol challenged young and old mice", "assay": "Mouse model of pediatric heart failure: cardiac growth (HW/BW) in response to isoproterenol with or without β-blocker", "format": "in vivo", "details": "for pathologic growth response to isoproterenol: isoproterenol 7 days, β-blocker via subcutaneously implanted pump; for heart weight to body weight ratio (HW/BW), response to ISO: older mice; for heart weight to body weight ratio (HW/BW), response to ISO / cardiac growth response to ISO (HW/BW): isoproterenol 30 mg/kg/day 7 days, β-blocker in drinking water, versus same age ISO", "protocol": "(§1) Since a primary characteristic of human heart failure is endogenous catecholamine (epinephrine and norepinephrine; full β1 and β2 receptor agonists) excess, they challenged the mice with isoproterenol (an exogeous full β1 and β2 receptor agonist) for 7 days using a subcutaneous miniosmotic pump at a dose (30 mg/kg/day) that has previously been associated with cardiac hypertrophy in adult mice and has been used as a model of cardiac hypertrophy and heart failure in adult […]. Higher doses (120 mg/kg/day) for 14 days cause a dilated heart failure phenotype, providing further evidence that this is an appropriate HF model. Half the animals received the isoproterenol treatment and the other half were treated with placebo pumps filled with normal saline and vitamin C, the vehicle that the isoproterenol is dissolved in. The young and old animals were divided into 2 studies: one for carvedilol treatment and one for metoprolol treatment (the study design for each animal study is illustrated in FIG. 8). […] The amount of water consumed was measured on a daily basis and all groups consumed similar amounts of water. In a second study to further support hypothesis (i) above and provide evidence of a class effect among β1-selective antagonists, young mice were divided into 2 studies one for bisoprolol and one for nebivolol. […] After 7 days of treatment, the hearts were removed and assessed for cardiac growth in response to isoproterenol with or without the β-blocker. Protein was isolated from the hearts of young and old mice in the presence or absence of isopreterenol without any β-blocker treatment assessed for phosphorylation of phospholamban by Western blot as outlined above."}, "[2]": {"tested_on": "HF patients (adult population)", "details": "cited from earlier work"}, "β1 and β2 receptors": {"tested_on": "β1 and β2 receptors", "details": "cited from earlier work; for β1 receptor selectivity: in words"}, "[3]": {"tested_on": "children with heart failure", "details": "Pediatric Carvedilol Trial, cited from earlier work"}, "caspase 3": {"tested_on": "caspase 3", "assay": "Caspase 3 levels in young mouse hearts by Western blot", "format": "in vivo", "details": "young mice, heart, one week of treatment, versus placebo", "protocol": "(§2) Western blots were performed as previously described by the inventors. Antibodies for total and phosphorylated PLB were diluted 1:15000 and antibodies for total and phosphorylated Akt were diluted 1:1000 in 1×TBS (20 mM Tris 500 mM NaCl pH 7.5) containing 3% BSA and 0.1% tween and incubated with the blot overnight at 4° C.\n(§3) To address hypothesis (iv) above a third study was performed in the young mice to provide evidence of the beneficial effects of exogenous β2-selective agonism with fenoterol. […] The methodology was identical to that outlined in the carvedilol and metoprolol studies above. Protein was isolated from the placebo, fenoterol and isoproterenol treated mouse hearts and phosphorylation of Akt and expression of Caspase 3 was determined to confirm the beneficial effects of fenoterol treatment."}, "Akt": {"tested_on": "Akt", "assay": "Phosphorylation of Akt in young mouse hearts by Western blot", "format": "in vivo", "details": "young mice, heart, one week of treatment, versus placebo", "protocol": "as §2, §3"}, "[4]": {"tested_on": "adult mouse models of myocardial infarction", "details": "adult mouse models of myocardial infarction (Ahmet, 2004; 2005; 2008); cited from earlier work"}, "[5]": {"tested_on": "phospholamban (Ser16, Thr17)", "assay": "Phospholamban phosphorylation in mouse hearts by Western blot", "format": "in vivo", "details": "isoproterenol challenged versus control", "protocol": "as §2, §1"}},
  "note": "“Also recorded” adds a separate entry of the source. Read-outs that look alike come from different tables or passages of the source.",
  "data": [
    {"smiles": "CC(C)NCC(O)COc1ccc(COCCOC(C)C)cc1", "note": "(stereo not shown) [Bisoprolol]", "values": [
      {"measurement": "pathologic growth response to isoproterenol", "setting": "[1]; young mice", "result": "significantly suppressed"},
      {"measurement": "pathologic growth response to isoproterenol", "setting": "[1]; young mice, listed as bisoprolol", "result": "significant blunting"},
      {"measurement": "Mortality Benefit, RR reduction", "setting": "[2]; CIBIS trial", "result": 32, "unit": "% RR"},
      {"measurement": "β1 receptor selectivity", "setting": "β1 and β2 receptors", "result": "higher selectivity than Metoprolol"}
    ]},
    {"smiles": "COc1ccccc1OCCNCC(O)COc1cccc2[nH]c3ccccc3c12", "note": "(stereo not shown) [Carvedilol]", "values": [
      {"measurement": "heart weight to body weight ratio (HW/BW), response to ISO", "setting": "[1]", "result": "lower"},
      {"measurement": "cardiac growth response to ISO (HW/BW)", "setting": "[1]; young mice", "result": "no benefit"},
      {"measurement": "cardiac growth response to ISO (HW/BW)", "setting": "[1]; young mice, listed as Coreg", "result": "no influence"},
      {"measurement": "Mortality Benefit, RR reduction", "setting": "[2]; CAPRICORN trial", "result": 23, "unit": "% RR"},
      {"measurement": "Mortality Benefit, RR reduction", "setting": "[2]; COPERNICUS trial", "result": 35, "unit": "% RR"},
      {"measurement": "Mortality Benefit, RR reduction", "setting": "[2]; US Coreg HF trial", "result": 65, "unit": "% RR"},
      {"measurement": "blockade of β2 receptors relative to β1 receptors", "setting": "β1 and β2 receptors; β2 over β1", "result": "up to 7 times"},
      {"measurement": "Outcome (clinical benefit)", "setting": "[3]; listed as carvedilol", "result": "lack of clinical benefit"},
      {"measurement": "Outcome (clinical benefit)", "setting": "[3]", "result": "no clinical benefit"}
    ]},
    {"smiles": "CC(Cc1ccc(O)cc1)NCC(O)c1cc(O)cc(O)c1", "note": "(stereo not shown) [Fenoterol, fenoterol]", "values": [
      {"measurement": "caspase 3 levels", "setting": "caspase 3; listed as fenoterol", "result": "maintaining only basal levels; also recorded: did not induce"},
      {"measurement": "phosphorylation of Akt", "setting": "Akt", "result": "induced"},
      {"measurement": "phosphorylation of Akt", "setting": "Akt; listed as fenoterol", "result": "increasing"},
      {"measurement": "myocardial remodeling and function", "setting": "[4]", "result": "improvements in myocardial remodeling and function"}
    ]},
    {"smiles": "CC(C)NCC(O)c1ccc(O)c(O)c1", "note": "(stereo not shown) [Isoproterenol, isoproterenol]", "values": [
      {"measurement": "caspase 3 levels", "setting": "caspase 3", "result": "increased"},
      {"measurement": "pathologic cardiac growth produced by the agonist", "setting": "[1]; young and old mice, 30 mg/kg/day for 7 days, subcutaneous miniosmotic pump", "result": "significant pathologic cardiac growth"},
      {"measurement": "growth response elicited by the agonist", "setting": "[1]; young mice, placebo (no β-blocker) treated animals, bisoprolol and nebivolol cohorts", "result": "significant growth response"},
      {"measurement": "phospholamban phosphorylation at serine 16", "setting": "[5]; old (adult) mice", "result": "dephosphorylated; also recorded: lower"},
      {"measurement": "phospholamban phosphorylation at threonine 17", "setting": "[5]; old (adult) mice", "result": "dephosphorylated; also recorded: lower"},
      {"measurement": "phospholamban phosphorylation at serine 16", "setting": "[5]; young mice", "result": "unchanged"},
      {"measurement": "phospholamban phosphorylation at threonine 17", "setting": "[5]; young mice", "result": "unchanged"},
      {"measurement": "phosphorylation of Akt", "setting": "Akt", "result": "decreased"}
    ]},
    {"smiles": "COCCc1ccc(OCC(O)CNC(C)C)cc1", "note": "(stereo not shown) [Metoprolol]", "values": [
      {"measurement": "heart weight to body weight ratio (HW/BW), response to ISO", "setting": "[1]", "result": "lower"},
      {"measurement": "cardiac growth response to ISO (HW/BW)", "setting": "[1]; young mice", "result": "blunted"},
      {"measurement": "cardiac growth response to ISO (HW/BW)", "setting": "[1]; young mice, listed as metoprolol", "result": "demonstrated benefit"},
      {"measurement": "Mortality Benefit, RR reduction", "setting": "[2]; MERIT-HF trial", "result": 34, "unit": "% RR"},
      {"measurement": "β1 receptor selectivity", "setting": "β1 and β2 receptors", "result": "selectively blocks the β1 receptor"}
    ]},
    {"smiles": "OC(CNCC(O)C1CCc2cc(F)ccc2O1)C1CCc2cc(F)ccc2O1", "note": "(stereo not shown) [Nebivolol]", "values": [
      {"measurement": "pathologic growth response to isoproterenol", "setting": "[1]; young mice", "result": "significantly suppressed"},
      {"measurement": "pathologic growth response to isoproterenol", "setting": "[1]; young mice, listed as nebivolol", "result": "significant blunting"},
      {"measurement": "Mortality or Hospitalization Benefit, RR reduction", "setting": "[2]; SENIORS trial", "result": 14, "unit": "% RR"},
      {"measurement": "β1 receptor selectivity", "setting": "β1 and β2 receptors", "result": "higher selectivity than Metoprolol"}
    ]}
  ]
}
